Type in all cases: cell-based
For test [1], the system named is Staphylocoocus aureus ATCC 6538. The test can be described thus: Antimicrobial activity MIC/MBC test, Staphylocoocus aureus ATCC 6538. The settings on record: read-out: MBC (minimum bactericidal concentration). The method, then:
(§1) The four reference strains were indications of the minimum inhibitory concentration (MIC) and minimum bactericidal concentration (MBC) tests conducted for two newly synthesized compounds of the new quaternary ammonium salts derivatives: 4-[2-(4-bromophenyl)-2-oxoethyl]tetrahydro[1,3]oxazolo[2,3-b][1,3]oxazol-4-ium bromide and 4-[2-(biphenyl-4-yl)-2-oxoethyl]tetrahydro[1,3]oxazolo[2,3-b][1,3]oxazol-4-ium bromide. The study was carried out on strains: Staphylocoocus aureus ATCC 6538, Escherichia coli ATCC 25922, Pseudomonas aeruginosa ATCC 6749, Candida albicans ATCC 10231,

Test [2] has as its system Escherichia coli ATCC 25922. Description: Antimicrobial activity MIC/MBC test, Escherichia coli ATCC 25922. The note with it: ATCC25922, read-out: MBC (minimum bactericidal concentration). Here is the method: as §1
Test [3] has as its system Pseudomonas aeruginosa ATCC 6749. The test can be described thus: Antimicrobial activity MIC/MBC test, Pseudomonas aeruginosa ATCC 6749. The settings on record: for MBC: ATCC6749, read-out: MBC (minimum bactericidal concentration); for MIC: ATCC6749, read-out: MIC (minimum inhibitory concentration). The method, then: as §1
Test [4] has as its system Candida albicans ATCC 10231. The test can be described thus: Antimicrobial activity MIC/MBC test, Candida albicans ATCC 10231. The note with it: ATCC10231, read-out: MBC (minimum bactericidal concentration). Here is the method: as §1

Experimental findings from US9169267B2, “Quaternary ammonium salts, method for preparation and applications thereof” (Uniwersytet Medyczny IM. Karola Marcinkowskiego, priority 2012, dated 2015) are described below.

As to `O=C(C[N+]12CCOC1OCC2)c1ccc(Br)cc1.[Br-]` (stereo not shown) [4-[2-(4-bromophenyl)-2-oxoethyl]tetrahydro[1,3]oxazolo[2,3-b][1,3]oxazol-4-ium bromide], the MBC in test [1] came out at 1730 µg/mL; in test [2], 6940 µg/mL; in test [3] it was 27.8 mg/mL; in test [4], 27.8 mg/mL. Moreover, the MIC in test [3] was 27.8 mg/mL.

Turning to `O=C(C[N+]12CCOC1OCC2)c1ccc(-c2ccccc2)cc1.[Br-]` (stereo not shown) [4-[2-(biphenyl-4-yl)-2-oxoethyl]tetrahydro[1,3]oxazolo[2,3-b][1,3]oxazol-4-ium bromide], the MBC in test [1] amounted to 430 µg/mL; in test [2], 3470 µg/mL; in test [3] it was 55.5 mg/mL; in test [4] it was 6.94 mg/mL. For the same compound, the MIC in test [3] came out at 13.9 mg/mL.
